Columns and labels:
[1] = system: IL-6 induced ERK phosphorylation; experiment: Test for inhibitory activity against ERK phosphorylation induced by IL-6 (Western blot, HepG2); type: cell-based, human; details: HepG2, 30 μg/ml (FIG. 5)
Description: HepG2 cell was divisionally inoculated in 6-well plate, and then starved for 18 hours.
The starved cells were treated with the samples for one hour, and then stimulated with IL-6 or LIF (Upstate Biotechnology, USA) for 10 minutes. The specimen was treated with 5× cell lysis buffer (Promega) sometimes with vortexing under ice for 30 minutes. The cell lysate obtained as described under B in Experiment 1 (3) was dissolved in 8% SDS-PAGE gel, and transferred to the nitrocellulose membrane. This membrane was blocked with Tris-buffered solution (50 mM Tris-HCl (pH 7.4), 150 mM NaCl, 0.1% Tween 20) containing 5% non-fat dry milk at 4° C. Then, it was incubated together with an appropriate primary antibody (ERK) present in Tris-buffered solution (50 mM Tris-HCl (pH 7.4), 150 mM NaCl, 0.1% Tween 20) containing 5% non-fat dry milk, at room temperature for 1-2 hours. This membrane was washed five times with TBS buffer solution for 10 minutes, and incubated with 1:6000 diluted horseradish peroxidase-conjugated secondary antibodies for one hour. The membrane was washed 10 times with TBS buffer solution, and then mixed and incubated with the 1:1 mixture of HRP Substrate Luminol Reagent and HRP Substrate Peroxide Solution as ELC reagent (Millipore Corp. Ma USA). The chemiluminescent signals were visualized with X-ray film.

[2] = system: Zymosan A-induced paw inflammation in C57BL/6 mice; experiment: Zymosan A-induced paw inflammation, effect of alleviating the inflammation; type: in vivo, mouse; details: for Difference between the thicknesses of the right paw and left paw: Zymosan and 30 mg/kg Compound 3 into right paw
Description: For this experiment, C57BL/6 mice were obtained from Central Lab. Animal Inc., and acclimated for one week and then used in the experiment. The gender of animals used in the experiment was female, and 4 mice were used in each of the control group and the test group (Doe group). To experiment Compound 3's effect of alleviating the inflammation, the thicknesses of paws having the inflammation is reduced by injecting 3 mg of Zymosan A and 30 mg/kg of Compound 3 into right paws of the experimental animals, and both the paw thicknesses in the control group to which Zymosan A was administered to induce the inflammation and the control group having no treatment were measured every day, and the results are as shown in FIG. 7.
When the paw thickness was measured every day after inducing the inflammatory reaction by Zymosan, a difference between the thicknesses of the right paw and left paw was 8.5, 7.0, 6.5, 5.5, 5.6 mm. It could be identified that by treatment with Zymosan and Compound 3 the inflammatory reaction was alleviated so that a difference between paw thicknesses was 6.0, 3.0, 2.0, 1.9, 1.8 mm. A difference between paw thicknesses could also be identified in real photographs of the group treated only with Zymosan, the test group treated with Zymosan and Compound 3, and the control group having no treatment of the experimental animals on the 6th day in the inflammation alleviating assay (FIG. 8).

[3] = system: IL-6 induced STAT3 phosphorylation; experiment: Test for inhibitory activity against STAT3 phosphorylation induced by IL-6 (Western blot, HepG2); type: cell-based, human; details: HepG2, 1, 3, 10, 30, 100 ug/ml, 10 ng/ml IL-6 (FIG. 4)
Description: HepG2 cells were divisionally inoculated in 6-well plate in the ratio of 5×10^4 cells/well, and grown to be 80% confluent. After changing to a serum-free medium and incubating for 6 hours, cells were pre-treated with the samples for one hour. […] Then the mixture was centrifuged (13,000×g, 15 minutes) to obtain a lysate as the supernatant. Herein, HepG2 cells not treated with IL-6 and the samples were used as the control group. The concentration of proteins was quantified by means of Bio-Rad DC protein assay kit, and the protein was loaded on 10% SDS-polyacrylamide gel (SDS-PAGE) and electrophoresed at 30 mA for 2 hours. After completion of the electrophoresis, the protein on gel was transcribed into PVDF membrane (Westran® S, pore size […]) at 90V for 90 minutes, and the transcribed membrane was blocked with Tris-buffered solution (T-TBS; 50 mM Tri-HCl, pH 7.6, 150 mM NaCl, 0.2% Tween-20, 5% skim milk) at 4° C. for 12 hours, and washed five time with T-TBS. The membrane was treated with polyclonal antibodies of phospho-STAT3 (1:1000 dilutions, respectively) as the primary antibody for 2 hours. After washing five times with T-TBS, the membrane was reacted with HRP-conjugated anti-rabbit antibody (1:5000 dilutions) as the secondary antibody for one hour. After washing with T-TBS, the film was developed in the dark room by means of ECL.

With `CCc1ccc(Nc2nc3cc(NC(=O)c4ccccc4)ccc3o2)cc1` [Compound 3, N-(2-(4-ethylphenylamino)benzo[d]oxazol-5-yl)benzamide] the “Influence on IL-6 induced ERK phosphorylation” value [1] was “did not influence on ERK phosphorylation”, the “Effect of alleviating the inflammation” value ([2]; 30 mg/kg, Zymosan A-induced paw inflammation (FIGS. 7, 8)) was “exhibited the effect of alleviating the inflammation” and the “Difference between the thicknesses of the right paw and left paw” value (“Difference between the thicknesses” for short) ([2]; 1st daily measurement) was 6.0 mm. The “Difference between the thicknesses” value ([2]; 2nd daily measurement) was 3.0 mm, the “Difference between the thicknesses” value ([2]; 3rd daily measurement) was 2.0 mm and the “Difference between the thicknesses” value ([2]; 4th daily measurement) was 1.9 mm. The “Difference between the thicknesses” value ([2]; 5th daily measurement) was 1.8 mm and the “Inhibitory activity on IL-6 induced STAT3 phosphorylation” value [3] was “inhibited IL-6 expression in a concentration-dependent manner”.

From patent US8614240B2, “Benzoxazole derivatives having inhibitory activity against interleukin-6, preparation method thereof, and pharmaceutical composition containing the same” (EWHA University-Industry Collaboration Foundation, priority 2010, dated 2013)
